Patent publication US8791155B2, “Chroman derivatives” (Edison Pharmaceuticals, Inc., priority 2003, dated 2014)

Experiments:
[1] = system: release of the leukotriene LTB4 from MPRO cell line; test: LTB4 assay (competitive ELISA); assay type: cell-based; settings: Mus musculus; 1 μM calcium ionophore A23187, 1 hour; read-out: EC50, inhibition of LTB4 production
Description: This procedure was used for measuring the release of the leukotriene LTB4 from a neutrophil cell line using a competitive ELISA technique.
• MPRO cell line (ATCC, Catalog #CRL-11422) • Calciumionophore (A23187) (Sigma, Catalog #C7522) • Nordihydroguaiaretic acid (NDGA) (BioMol, Catalog #E1101-0001) • Retinoic Acid (all-trans) (ATRA) (Sigma, Catalog #95152) • Sterile, tissue-culture treated 96-well plates (Corning, Catalog #3614) Materials for LTB4 ELISA • Precoated (Mouse Anti-Rabbit IgG) EIA 96 Well Strip Plates (Cayman, Catalog #400004) • Leukotriene B4 AChE Tracer (Cayman Catalog #420110) • Leukotriene B4 EIA Antiserum (Cayman Catalog #420112) • Ellman's Reagent (Cayman Catalog #400050) • EIA Buffer Concentrate (10×) (Cayman Catalog #400060) • Wash Buffer Concentrate (400×) (Cayman Catalog #400062) • Plastic plate covers (Cayman Catalog #400012) Procedure
A mouse promyelocytic cell line (MPRO) was used in this assay. These cells are committed immature neutrophils that can be differentiated into mature neutrophils by treatment with 10 μM all-trans retinoic acid for 72 hours
Following 72 hours of differentiation, cells were stimulated with 1 μM of a calcium ionophore (A23187) in the presence or absence of test compound or vehicle for 1 hour at 370 C. After this time, supernatant was removed from the cells and the LTB4 levels were determined following manufacturer's instructions, using a Leukotriene B4 EIA kit from Cayman (Cat #520111)
The negative controls were media samples from differentiated but unstimulated cells.
The compounds were screened at 5 concentrations in quadruplicate starting at 10 μM

[2] = target: T1, human recombinant 5-lipoxygenase (Homo sapiens, UniProt P09917); test: 5-Lipoxygenase enzyme assay; assay type: biochemical; settings: 70 μM arachidonic acid, pH 7.4, 10 minute incubation; read-out: IC50, inhibition of 5-Lipoxygenase
T1 construct: purchased Cayman 60402
T1 sequence (P09917 1-674): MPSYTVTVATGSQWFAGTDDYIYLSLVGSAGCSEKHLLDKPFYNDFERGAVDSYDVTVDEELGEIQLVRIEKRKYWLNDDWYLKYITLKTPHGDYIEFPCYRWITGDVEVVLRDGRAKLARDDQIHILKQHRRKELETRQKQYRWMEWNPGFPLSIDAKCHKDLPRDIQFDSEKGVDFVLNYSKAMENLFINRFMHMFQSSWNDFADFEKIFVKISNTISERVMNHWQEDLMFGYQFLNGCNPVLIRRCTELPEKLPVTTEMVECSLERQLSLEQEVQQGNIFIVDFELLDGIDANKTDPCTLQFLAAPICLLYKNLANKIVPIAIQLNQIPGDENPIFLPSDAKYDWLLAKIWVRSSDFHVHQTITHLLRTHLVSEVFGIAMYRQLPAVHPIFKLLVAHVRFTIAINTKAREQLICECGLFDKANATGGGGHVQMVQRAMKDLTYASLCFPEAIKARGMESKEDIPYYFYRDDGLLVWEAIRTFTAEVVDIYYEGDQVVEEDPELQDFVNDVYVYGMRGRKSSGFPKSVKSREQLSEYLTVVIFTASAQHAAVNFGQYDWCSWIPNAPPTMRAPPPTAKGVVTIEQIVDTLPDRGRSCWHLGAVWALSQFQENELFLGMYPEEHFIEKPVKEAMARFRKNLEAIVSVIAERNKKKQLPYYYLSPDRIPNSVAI
Description: (§1) In vitro evaluation of the ability of a composition to inhibit the enzymes 5-lipoxygenase, 15-lipoxygenase, or 12/15 lipoxygenase as described in Walidge, N. B. et al Anal. Biochem., 231: 354-358 (1995) using a high throughput colorimetric method; as well as in vitro evaluation of inhibiting LTB4 is described in Examples.
This procedure was used for measuring the enzymatic activity of human recombinant 5-lipoxygenase using a colorimetric method based on the ferric oxidation of xylenol orange.
• 96 well flat bottom microfilter plates (VWR, Catalog #62402-933 9295) • Lipoxygenase screening assay buffer (Cayman, Catalog #760710) • Human recombinant 5-lipoxygenase (Cayman, Catalog #60402) • Arachidonic Acid (Sigma, Catalog #A3555) • Xylenol orange tetrasodium salt (Aldrich, Catalog #227854) • Iron (II) sulfate heptahydrate (Sigma, Catalog #F7002) • Sulfuric acid (95-98%) [18M]—Methanol Procedure
(§2) Human recombinant 5-lipoxygenase (Cayman Cat #60402) was used in this assay. The test compound and/or vehicle was added to 0.51-1 5-lipoxygenase in 50 mM Tris-HCl buffer, pH 7.4. The reaction was initiated by addition of 70 μM arachidonic acid in Tris-HCl buffer, pH 7.4, and terminated after a 10 minute incubation at room temperature by addition of FOX reagent (25 mM sulphuric acid, 100 μM xylenol orange, 100 μM iron (II) sulphate, methanol:water 9:1). The yellow color of acidified xylenol orange was converted to a blue color by the lipid hydroperoxide-mediated oxidation of Fe 2+ ions and the interaction of the resulting Fe 3+ ions with the dye. The complex was allowed to form during a 1 hour incubation at room temperature with shaking. Absorbance of the Fe 3+ complex was then measured at […] using a spectrophotometer.
(§3) Negative controls contained enzyme during the incubation step but substrate was not added until after the FOX reagent.
Compounds were screened at 5 concentrations in triplicate starting at 10 μM

[3] = target: T2, porcine leukocyte 12/15-lipoxygenase (Sus scrofa, UniProt P16469); test: 12/15-Lipoxygenase enzyme assay; assay type: biochemical; settings: 70 μM arachidonic acid, pH 7.4, 10 minute incubation; read-out: IC50, inhibition of 12/15-Lipoxygenase
T2 construct: purchased Cayman 60300
T2 sequence (P16469 1-663): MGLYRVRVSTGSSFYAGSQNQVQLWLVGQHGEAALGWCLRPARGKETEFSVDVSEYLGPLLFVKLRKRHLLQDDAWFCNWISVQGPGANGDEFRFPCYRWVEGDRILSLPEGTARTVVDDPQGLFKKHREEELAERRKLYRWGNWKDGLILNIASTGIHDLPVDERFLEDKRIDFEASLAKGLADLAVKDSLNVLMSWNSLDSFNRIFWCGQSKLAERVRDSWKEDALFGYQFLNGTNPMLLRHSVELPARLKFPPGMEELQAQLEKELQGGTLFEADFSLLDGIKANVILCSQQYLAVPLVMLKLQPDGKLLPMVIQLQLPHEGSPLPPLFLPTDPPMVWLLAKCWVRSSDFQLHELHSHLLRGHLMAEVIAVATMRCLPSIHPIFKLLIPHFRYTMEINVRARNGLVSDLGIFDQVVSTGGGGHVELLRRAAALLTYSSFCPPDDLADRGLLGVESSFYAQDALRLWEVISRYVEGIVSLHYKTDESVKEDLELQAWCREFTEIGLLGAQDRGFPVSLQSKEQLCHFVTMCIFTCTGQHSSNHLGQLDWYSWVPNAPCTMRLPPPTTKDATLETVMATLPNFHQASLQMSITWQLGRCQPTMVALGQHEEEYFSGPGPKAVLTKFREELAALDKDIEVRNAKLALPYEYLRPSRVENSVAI
Description: as §1
This procedure was used for measuring the enzymatic activity of porcine leukocyte 12/15-lipoxygenase using a colorimetric method based on the ferric oxidation of xylenol orange.
• 96 well flat bottom microfilter plates (VWR, Catalog #62402-933 9295) • Lipoxygenase screening assay buffer (Cayman, Catalog #760710) • Porcine leukocyte 12/15-lipoxygenase (Cayman, Catalog #60300) • Arachidonic Acid (Sigma, Catalog #A3555) • Xylenol orange tetrasodium salt (Aldrich, Catalog #227854) • Iron (II) sulfate heptahydrate (Sigma, Catalog #F7002) • Sulfuric acid (95-98%) [18M] • Methanol Procedure
as §2, with “Porcine Leukocyte 12/15-lipoxygenase” for “Human recombinant 5-lipoxygenase”, “#60300)” for “#60402)”, “Test” for “The test”, “1.3 U 12/15-lipoxygenase” for “0.51-1 5-lipoxygenase”
as §3
Compounds are screened at 5 concentrations in triplicate starting at 10 μM

Cc1c(C)c2c(c(-c3ccco3)c1O)CCC(C)(C)O2 [5-Furan-2-yl-2,2,7,8-tetramethyl-chroman-6-ol]
< 1000 nM: EC50 [1] | IC50 [2] | IC50 [3]
